Measured values published in patent US20170000805A1, “FOOD SUPPLEMENTATION COMPOSITION CONTAINING ONE OR MORE VITAMIN D3 COMPOUNDS AND ONE OR MORE MAGNESIUM SALTS” (DSM IP ASSETS B.V., priority 2006, published 2017).

Experiments:
[1] = MgCl2 and Hy-D dosed into the rumen of fistulated cattle: urine pH, urine and blood plasma minerals; assay type: in vivo
Experimental: Four mature rumen fistulated cattle (approximately 600 kg […] in individual pens and offered 12 kg/day of good quality lucerne chaff throughout the experiment. After a 2 week adaptation to this diet the following treatments were applied daily over 2 weeks to each animal in a Latin Square Design: 1. no supplement (control) 2. […] 3. […]® 1.25% (5 mg 25-hydroxy vitamin D3) MgCl2 plus […]® 1.25 % Each treatment was dosed into the rumen through a cannula each morning during the 2 week experimental period. […] Urine pH was measured at time of collection; blood plasma was decanted after centrifugation and analyzed for calcium, magnesium, potassium, sodium and phosphorus by inductively coupled plasma atomic emission spectrophotometry. The results were analysed as a latin square design making comparisons between treatments after removal of any animal or period effects. The lucerne […] assayed for macro cations together with chloride and sulphur concentrations.

[2] = cited from earlier work
[3] = blood samples on days 7, 13 and 14
[4] = urine samples on days 12, 13 and 14

| Structure (SMILES) | Blood Plasma composition Ca2+ [1, 3] | Blood Plasma composition K+ [1, 3] | Blood Plasma composition Mg2+ [1, 3] | Blood Plasma composition Na+ [1, 3] | Blood Plasma composition Phosphorus [1, 3] | Urine Composition Ca2+ [1, 4] | Urine Composition K+ [1, 4] | Urine Composition Mg2+ [1, 4] | Urine Composition Na+ [1, 4] | Urine Composition Phosphorus [1, 4] | Urine pH ([1]; urine samples on days 12, 13 and 14, measured at time of collection) | activity relative to 25-hydroxy vitamin D3 [2] |
| --- | --- | --- | --- | --- | --- | --- | --- | --- | --- | --- | --- | --- |
| [Cl-].[Cl-].[Mg+2] [Mg, magnesium chloride] | 87 mg/L | 233 mg/L | 19 mg/L | 2280 mg/L | 74 mg/L | 397b mg/L | 6652 mg/L | 411 mg/L | 444 mg/L | 190 mg/L | 6.20b | – |
| C=C1/C(=C\C=C2/CCC[C@]3(C)[C@@H]([C@H](C)CCCC(C)(C)O)CC[C@@H]23)C[C@@H](O)C[C@@H]1O [1-α-, 25-dihydroxy vitamin D3] | – | – | – | – | – | – | – | – | – | – | – | approximately 10 times |
| C=C1/C(=C\C=C2/CCC[C@]3(C)[C@@H]([C@H](C)CCCC(C)C)CC[C@@H]23)C[C@@H](O)C[C@@H]1O [1-α-hydroxy vitamin D3] | – | – | – | – | – | – | – | – | – | – | – | approximately 10 times |
